Laboratory results taken from patent US11419333B2, “Compositions and methods for biofilm removal” (ChampionX USA Inc., priority 2018, dated 2022).

Test system: Pseudomonas aeruginosa
Experiment: Biocide test of quats in combination with THPS (ACCUCOUNT ATP)
Assay type: cell-based
Conditions: 400 ppm (active) quat with addition of 8% THPS, compared to untreated sample
Procedure: The ability of POLY SUGA quats to act as biocides was tested. […] Each quat was compared to an untreated sample as well as a sample treated with a nonpolymeric cationic quat used as a positive control. Each test contained Pseudomonas aeruginosa, grown to a final density of 1×E8 per mL of cells in 3% sodium chloride containing growth medium. 400 ppm (active) of each quat was added to the mix and incubated for 4 and 24 hrs. After this time, 10 ml aliquots of each sample were drawn for analysis.
Active microbial populations were estimated using the ACCUCOUNT method. ACCUCOUNT uses ATP concentrations measured using fluorescence to indirectly quantitate the number of active microbes in a given sample. It is assumed that each cell contains 1 fg of ATP. By correlating the detected fluorescence to a known concentration of standard-the number of bacterial cells/mL is estimated.
The ability of each quat to act together with a known biocide to reduce microbial populations was tested. […] THPS alone and a non-polymeric cationic quat+THPS were used as positive controls.

“tetrakis(hydroxymethyl)phosphonium sulfate [THPS]” was tested, and the “% reduction in bacteria” value (4 Hrs.) was 89.75% and the “% reduction in bacteria” value (24 Hrs.) was 91.73%.
